One compound from publication PMC4992173, “Divergent synthesis and identification of the cellular targets of deoxyelephantopins” (Nature Communications, 2016) can be followed below.

Structures are written as SMILES. pIC50: −log10 of the molar value.

For this test, the target named is T1, PPARγ C176A (Homo sapiens, UniProt P37231, C176A).
T1 construct: host or cells: 293T
Put plainly: Gel-based competitive IC50 determination in 293T lysates: C176A PPARγ. The test is classed as binding. Conditions: C176A PPARγ expressed in 293T cells, lysate, 1 h, then 10 μM 24c-Cy3. The text has this:
Finally, we sought to understand the molecular basis for PPARγ binding by the synthetic analogues of deoxyelephantopin through identification of the precise covalently modified amino acid site. There is literature precedent for oxidized fatty acids containing an α,β-unsaturated ketone to form a covalent bond with a cysteine in the ligand-binding site of PPARγ[53]. More recently, synthetic ligands binding reversibly to a distinct site were identified. […] Bearing in mind that the structurally simplified, and thus less prone to MS/MS fragmentation, probe 23c binds PPARγ as efficiently as 24c (Supplementary Fig. 13), we treated the recombinant nuclear receptor with the former compound, digested the protein and analysed the resulting peptides by LC–MS/MS. […]
Supplementary figure 21: Top: Fluorescence gels corresponding to the IC50 curves presented in the main text Figure 8b. γ fluorescence signal in percentage after 19a treatment. […]
Biological materials. […] Protein concentration was determined using the Bradford assay (Bio-Rad).
Cell culture and preparation of lysates. […] Cells were lysed by sonication to form cell lysates and protein concentration was determined using the Bradford […]

T1 sequence (P37231 whole entry C176A): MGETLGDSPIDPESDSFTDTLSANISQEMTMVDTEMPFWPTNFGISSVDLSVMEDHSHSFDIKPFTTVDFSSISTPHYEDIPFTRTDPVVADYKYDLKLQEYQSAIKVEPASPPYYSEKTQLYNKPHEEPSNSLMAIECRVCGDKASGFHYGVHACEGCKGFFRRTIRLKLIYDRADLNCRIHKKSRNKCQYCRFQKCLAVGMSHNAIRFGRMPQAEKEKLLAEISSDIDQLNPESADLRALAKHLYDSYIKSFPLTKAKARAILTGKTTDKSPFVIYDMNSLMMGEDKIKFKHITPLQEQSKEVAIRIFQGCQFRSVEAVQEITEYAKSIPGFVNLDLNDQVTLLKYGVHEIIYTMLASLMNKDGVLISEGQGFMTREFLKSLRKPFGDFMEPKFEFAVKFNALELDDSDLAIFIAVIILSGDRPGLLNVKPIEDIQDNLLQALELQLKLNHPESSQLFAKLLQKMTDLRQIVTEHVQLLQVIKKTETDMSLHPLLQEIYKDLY

The pIC50 is the IC50 on a negative log10 scale, so that one unit is a factor of ten. Regarding `C=C(C)C(=O)O[C@H]1CC2=C[C@H](C/C=C\[C@H]3OC(=O)C(=C)[C@H]13)OC2=O` [19a], the pIC50 was 4.48.
